According to patent publication EP4559923A1, “ANTIHISTAMINE COMPOUND, AND PREPARATION METHOD THEREFOR AND USE THEREOF” (HC Synthetic Pharmaceutical Co., Ltd., priority 2022, dated 2024):
Converted amounts (≈) assume the structure as drawn.

Columns and labels:
histamine = test: Muscle tone of isolated ileal smooth muscle of guinea pigs contracted with histamine; conditions: Table 4, x±s, n = 8; for Antispasmodic percentage (%): relative to tone after adding histamine, 3 min; for Smooth muscle tone (g) After addition of histamine: after 0.05 mL of histamine, before compound; for Smooth muscle tone (g) Before administration: before histamine and compound
Protocol: (§1) The guinea pig was knocked unconscious with a wooden stick, and the abdomen was immediately dissected to separate the ileum about 15 cm in length. The contents of the intestinal segment were flushed with Tyrode's solution and placed in Tyrode's solution at a constant temperature of 37°C for later use, and oxygen was supplied simultaneously. The experimental intestinal tract (1 cm in length) was cut and placed into 20 ml of Tyrode's solution at a constant temperature of 37°C with a continuous oxygen supply. One end of the intestine was fixed on the ventilation hook and the other end was connected to the muscle tone transducer and led to the computer interface. The muscle tone value of the ileal smooth muscle was recorded with a BL system. The experiment was carried out after the intestinal segment contraction became stable.
(§2) After the ileal peristalsis curve stabilized, the tone values before adding the compound were recorded, and then 0.05 mL of histamine was added. […] The operation was repeated 8 times. The antispasmodic percentage was calculated using the following equation. Antispasmodic percentage; = (Tone value after adding histamine−Tone value after adding subject compound)/(Tone value after adding histamine) × 100% [formula]

[1] = as above; conditions: Table 4; 3 minutes after adding 0.05 mL compound at maximum histamine contraction; x±s, n = 8
Protocol: as §1, §2

[2] = tested on: isolated ileal smooth muscle; test: Muscle tone of isolated ileal smooth muscle of guinea pigs, compound alone; conditions: Table 3, no histamine, X±s, n = 8; for Smooth muscle tone (g) After administration: 5 minutes after adding the drug; for Antispasmodic percentage (%): relative to tone before adding compound, 5 min
Protocol: as §1
After the ileum contraction curve stabilized, the tone values before adding the drug were recorded, then the drug or DMSO was added, and the average tone value of the ileum contraction curve at that point was recorded 5 minutes later. The operation was repeated 8 times. The antispasmodic percentage was calculated according to the following formula. Antispasmodic percentage =; (Tone value before adding subject compound−Tone value after adding subject compound)/(Tone value before adding subject compound) × 100% [formula]

histamine-induced asthma = test: Antiasthmatic effect on histamine-induced asthma in guinea pigs (latency period); format: in vivo; conditions: X±s, n = 5; for Post-administration latency period: 1 mg/kg oral gavage, sixty minutes after administration, histamine hydrochloride spray, no asthma within 8 minutes counted as 8 minutes
Protocol: The guinea pigs were placed in a polymethyl methacrylate bell jar and a histamine hydrochloride solution was sprayed ultrasonically (0.8 mg/mL) for 40 seconds. The time point at which the guinea pigs developed asthma was recorded. The time of convulsion and fall was taken as the latency period. Guinea pigs with a latency period exceeding 180 seconds were not selected. […] The guinea pigs were administered by oral gavage at a dose of 2 mL/kg·bw. Sixty minutes after the administration, the guinea pigs were placed in bell jars, and histamine hydrochloride solution was sprayed under the same conditions as in the previous selection. The latency period for the onset of asthma was recorded. […] The results were processed statistically.

[3] = Solubility in water, methanol and isopropanol; conditions: for solubility Isopropanol: in isopropanol; for solubility Water: in water; for solubility Methanol: in methanol
Protocol: The solubility in water, methanol, and isopropanol of the compounds of the present disclosure and the comparative compounds were measured separately.

[4] = Accelerated stability test; format: physicochemical; conditions: 40°C ± 2°C, relative humidity 75% ± 5%

Row | Structure (SMILES) | Antispasmodic percentage (%) (histamine) | Smooth muscle tone (g) After administration [1] | Smooth muscle tone (g) After administration [2] | Post-administration latency period (histamine-induced asthma) | solubility Isopropanol [3] | Antispasmodic percentage (%) [2] | solubility Water [3] | other results
1 | O=P(O)(O)OCCCCN1CCC(=C2c3ccc(Cl)cc3CCc3cccnc32)CC1 [Compound III-10] | 65.24±18.39% | 1.22 ± 0.19 g | 1.15 ± 0.26 g | 370.80 ± 51.23 s | 25 mg/mL (≈ 54 mM) | – | – | –
2 | O=P(O)(O)OCCCCCN1CCC(=C2c3ccc(Cl)cc3CCc3cccnc32)CC1 [Compound III-13] | 65.58±18.20% | 1.17 ± 0.20 g | 1.21 ± 0.26 g | 366.81 ± 53.10 s | 25 mg/mL (≈ 52.4 mM) | 32.02±16.85% | 32 mg/mL (≈ 67.1 mM) | Smooth muscle tone (g) After addition of histamine (histamine): 3.40 ± 0.98 g; Smooth muscle tone (g) Before administration (histamine): 1.80 ± 0.16 g; Smooth muscle tone (g) Before administration ([2]; before adding the drug): 1.78 ± 0.25 g; Pre-administration latency period (histamine-induced asthma; baseline before dosing, histamine hydrochloride spray 0.8 mg/mL for 40 seconds): 104.38 ± 50.27 s
3 | O=P(O)(O)OCCCCN1CCC(=C2c3ccc(Cl)cc3CCc3cccnc32)CC1 [Compound IV-4] | 66.76±19.71% | 1.16 ± 0.22 g | 1.14 ± 0.21 g | 380.22 ± 51.19 s | – | 33.33±20.91% | – | Content ([4]; Month 0): 99.6%; Description ([4]; Month 0): White powder; Related substances ([4]; Month 0): 0.03%; Description ([4]; Month 1): White powder; Related substances ([4]; Month 1): 0.04%; Description ([4]; Month 2): White powder; Related substances ([4]; Month 2): 0.05%; Description ([4]; Month 3): White powder; Related substances ([4]; Month 3): 0.06%; Description ([4]; Month 6): White powder; Related substances ([4]; Month 6): 0.10%; remaining at 730 h ([4]; storage 75% relative humidity, Month 1, read-out: Content): 99.6%; remaining at 1460 h ([4]; storage 75% relative humidity, Month 2, read-out: Content): 99.6%; remaining at 2190 h ([4]; storage 75% relative humidity, Month 3, read-out: Content): 99.6%; remaining at 4380 h ([4]; storage 75% relative humidity, Month 6, read-out: Content): 99.5%; solubility ([3]; water): 402 mg/mL (≈ 868 mM)
4 | O=P(O)(O)OCCCCN1CCC(=C2c3ccc(Cl)cc3CCc3cccnc32)CC1 [Compound IV-5] | 65.70±20.11% | 1.19 ± 0.23 g | 1.19 ± 0.27 g | 362.49 ± 50.00 s | 1 mg/mL (≈ 2.16 mM) | 31.60±20.10% | 386 mg/mL (≈ 834 mM) | Content ([4]; Month 0): 99.5%; Description ([4]; Month 0): White powder; Related substances ([4]; Month 0): 0.03%; Description ([4]; Month 1): White powder; Related substances ([4]; Month 1): 0.06%; Content ([4]; Month 1, 43800 min): 99.5%; Description ([4]; Month 2): White powder; Related substances ([4]; Month 2): 0.10%; Content ([4]; Month 2, 87600 min): 99.4%; Description ([4]; Month 3): White powder; Related substances ([4]; Month 3): 0.13%; Content ([4]; Month 3, 131400 min): 99.4%; Description ([4]; Month 6): White powder; Related substances ([4]; Month 6): 0.28%; Content ([4]; Month 6, 262800 min): 99.2%; solubility Methanol [3]: 22 mg/mL (≈ 47.5 mM)
5 | O=P(O)(O)OCCCCCN1CCC(=C2c3ccc(Cl)cc3CCc3cccnc32)CC1 [Compound IV-6] | 65.80±19.03% | 1.18 ± 0.21 g | 1.14 ± 0.25 g | 361.94 ± 53.19 s | 5 mg/mL (≈ 10.5 mM) | 34.10±18.93% | 367 mg/mL (≈ 769 mM) | solubility Methanol [3]: 30 mg/mL (≈ 62.9 mM)
6 | OCCCCN1CCC(=C2c3ccc(Cl)cc3CCc3cccnc32)CC1 [Hydroxybutyl desloratadine, hydroxybutyl desloratadine, reference compound] | – | 1.44 ± 0.44 g | 1.30 ± 0.23 g | 279.71 ± 54.91 s | – | 23.53±12.32% | Practically insoluble | Smooth muscle tone (g) After addition of histamine (histamine): 3.41 ± 0.92 g; Smooth muscle tone (g) Before administration (histamine): 1.73 ± 0.12 g
7 | OCCN1CCC(=C2c3ccc(Cl)cc3CCc3cccnc32)CC1 [Hydroxyethyl desloratadine, hydroxyethyl desloratadine, reference compound] | 57.94±11.45% | 1.43 ± 0.41 g | 1.30 ± 0.30 g | 284.11 ± 59.10 s | – | 23.97±10.32% | Practically insoluble | –
8 | OCCCCCCN1CCC(=C2c3ccc(Cl)cc3CCc3cccnc32)CC1 [Hydroxyhexyl desloratadine, hydroxyhexyl desloratadine, reference compound] | – | 1.43 ± 0.43 g | 1.26 ± 0.23 g | 283.84 ± 58.88 s | – | 26.31±13.96% | Practically insoluble | –
9 | OCCCCCN1CCC(=C2c3ccc(Cl)cc3CCc3cccnc32)CC1 [Hydroxypentyl desloratadine, hydroxypentyl desloratadine, reference compound] | – | 1.41 ± 0.42 g | 1.24 ± 0.22 g | 280.29 ± 58.19 s | – | 28.73±11.32% | Practically insoluble | –
10 | OCCCN1CCC(=C2c3ccc(Cl)cc3CCc3cccnc32)CC1 [Hydroxypropyl desloratadine, hydroxypropyl desloratadine, reference compound] | – | 1.41 ± 0.42 g | 1.28 ± 0.25 g | 288.33 ± 58.12 s | – | 24.70±13.43% | Practically insoluble | –
